Experimental data taken from patent publication US20100298141A1, “SUBSTITUTED PYRIDINE N-OXIDE HERBICIDES” (E. I. DU PONT DE NEMOURS AND COMPANY, priority 2007, published 2010).

Assays:
Goosegrass = assay: Test C pre-/postemergence test; assay type: in vivo, Eleusin indica
How it was run: (§1)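 Compounds in a non-phytotoxic solvent with surfactant applied preemergence to seeded pots and, at the same time, postemergence to plants 2–18 cm tall (1- to 4-leaf stage). Paddy tests: pots flooded to 3 cm, compound applied into the water, depth held throughout.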

barnyardgrass [1] = assay: Test C flooded paddy test; assay type: in vivo, Echinochloa crus-galli; conditions: Flood
How it was run: (§2)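 Ratings were visual and made relative to untreated controls after 13 to 15 greenhouse days.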

kochia = assay: Test C pre-/postemergence test; assay type: in vivo, Kochia scoparia; conditions: for Kochia plant response rating: preemergence, scale 0 (no effect) to 100 (complete control)
How it was run: as §1

Surinam grass = assay: Test C pre-/postemergence test; assay type: in vivo, Brachiaria decumbens
How it was run: as §1

soybean = assay: Test C pre-/postemergence test; assay type: in vivo, Glycine max
How it was run: as §1

Italian ryegrass = assay: Test C pre-/postemergence test; assay type: in vivo, Lolium multiflorum
How it was run: as §1

giant foxtail = assay: Test A pre-/postemergence greenhouse test; assay type: in vivo, Setaria faberi; conditions: for Plant response rating, Foxtail, Giant: 0 to 100 scale where 0 is no effect and 100 is complete control; for Foxtail, Giant plant response rating: 0 to 100 scale
How it was run: (§3)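 Seeds sown in a loam soil–sand blend got a preemergence directed soil spray of compound in a non-phytotoxic solvent mixture containing surfactant. Postemergence sprays of the same formulation went at the same time onto plants 2–10 cm tall at the one- to two-leaf stage. Injury was scored visually against untreated controls after about ten days in the greenhouse.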

barnyardgrass [2] = assay: Test A pre-/postemergence greenhouse test; assay type: in vivo, Echinochloa crus-galli; conditions: for Plant response rating, Barnyardgrass: 0 to 100 scale where 0 is no effect and 100 is complete control; for Barnyardgrass plant response rating: 0 to 100 scale
How it was run: as §3

cocklebur = assay: Test C pre-/postemergence test; assay type: in vivo, Xanthium strumarium
How it was run: as §1

pigweed = assay: Test C pre-/postemergence test; assay type: in vivo, Amaranthus retroflexus
How it was run: as §1

crabgrass [3] = assay: Test C pre-/postemergence test; assay type: in vivo, Digitaria sanguinalis
How it was run: as §1

umbrella sedge = assay: Test C flooded paddy test; assay type: in vivo, Cyperus difformis; conditions: Flood
How it was run: as §2

[4] = tested on: common (oilseed) sunflower; assay: Test C pre-/postemergence test; assay type: in vivo, Helianthus annuus
How it was run: as §1

morningglory = assay: Test A pre-/postemergence greenhouse test; assay type: in vivo, Ipomoea spp.; conditions: for Plant response rating, Morningglory: 0 to 100 scale where 0 is no effect and 100 is complete control; for Morningglory plant response rating: 0 to 100 scale
How it was run: as §3

lambsquarters = assay: Test C pre-/postemergence test; assay type: in vivo, Chenopodium album; conditions: preemergence, scale 0 (no effect) to 100 (complete control)
How it was run: as §1

bermudagrass = assay: Test C pre-/postemergence test; assay type: in vivo, Cynodon dactylon
How it was run: as §1

crabgrass [5] = assay: Test A pre-/postemergence greenhouse test; assay type: in vivo, Digitaria sanguinalis; conditions: for Plant response rating, Crabgrass, Large: 0 to 100 scale where 0 is no effect and 100 is complete control; for Crabgrass, Large plant response rating: 0 to 100 scale
How it was run: as §3

[6] = 62 g ai/ha, Preemergence, scale 0 to 100
[7] = 125 g ai/ha, preemergence, scale 0 (no effect) to 100 (complete control)
[8] = Preemergence, 31 g ai/ha, scale 0 to 100 (0 no effect, 100 complete control)
[9] = preemergence, 250 g ai/ha, scale 0 (no effect) to 100 (complete control)
[10] = 62 g ai/ha, scale 0 to 100 (0 no effect, 100 complete control)
[11] = 250 g ai/ha, scale 0 to 100, 0 no effect, 100 complete control, 13 to 15 days
[12] = Postemergence, 500 g ai/ha, 0 is no effect, 100 is complete control
[13] = Preemergence, 125 g ai/ha, 0 no effect, 100 complete control

Structure (SMILES): Cn1nc(OC(F)F)c(CS(=O)(=O)c2cccc[n+]2[O-])c1C(F)(F)F [Compound 80]
- Goosegrass plant response rating (Goosegrass; [6]): 98
- Goosegrass plant response rating (Goosegrass; [7]): 100
- Plant response rating, Goosegrass (Goosegrass; [8]): 80
- Goosegrass plant response rating (Goosegrass; [9]): 100
- Plant response rating, Barnyardgrass (barnyardgrass [1]; [10]): 0
- Plant response rating, Barnyardgrass (barnyardgrass [1]; [11]): 60
- Kochia plant response rating (kochia; 125 g ai/ha): 70
- Plant response rating, Kochia (kochia; [8]): 0
- Kochia plant response rating (kochia; 250 g ai/ha): 100
- Surinam Grass plant response rating (Surinam grass; [6]): 80
- Surinam Grass plant response rating (Surinam grass; [7]): 80
- Plant response rating, Surinam Grass (Surinam grass; [8]): 70
- Surinam Grass plant response rating (Surinam grass; [9]): 100
- Soybean plant response rating (soybean; [6]): 0
- Soybean plant response rating (soybean; [7]): 20
- Plant response rating, Soybean (soybean; [8]): 0
- Soybean plant response rating (soybean; [9]): 20
- Ryegrass, Italian plant response rating (Italian ryegrass; [6]): 70
- Ryegrass, Italian plant response rating (Italian ryegrass; [7]): 85
- Plant response rating, Ryegrass, Italian (Italian ryegrass; [8]): 0
- Ryegrass, Italian plant response rating (Italian ryegrass; [9]): 90
- Plant response rating, Foxtail, Giant (giant foxtail; Postemergence, 125 g ai/ha): 70
- Foxtail, Giant plant response rating (giant foxtail; [12]): 80
- Foxtail, Giant plant response rating (giant foxtail; [13]): 90
- Plant response rating, Foxtail, Giant (giant foxtail; Preemergence, 500 g ai/ha): 100
- Plant response rating, Barnyardgrass (barnyardgrass [2]; Postemergence, 125 g ai/ha): 80
- Barnyardgrass plant response rating (barnyardgrass [2]; [12]): 90
- Barnyardgrass plant response rating (barnyardgrass [2]; [13]): 90
- Plant response rating, Barnyardgrass (barnyardgrass [2]; Preemergence, 500 g ai/ha): 100
- Cocklebur plant response rating (cocklebur; [6]): 0
- Cocklebur plant response rating (cocklebur; [7]): 45
- Plant response rating, Cocklebur (cocklebur; [8]): 0
- Cocklebur plant response rating (cocklebur; [9]): 80
- Pigweed plant response rating (pigweed; [6]): 0
- Pigweed plant response rating (pigweed; [7]): 0
- Plant response rating, Pigweed (pigweed; [8]): 0
- Pigweed plant response rating (pigweed; [9]): 0
- Crabgrass, Large plant response rating (crabgrass [3]; [6]): 85
- Crabgrass, Large plant response rating (crabgrass [3]; [7]): 85
- Plant response rating, Crabgrass, Large (crabgrass [3]; [8]): 85
- Crabgrass, Large plant response rating (crabgrass [3]; [9]): 98
- Plant response rating, Sedge, Umbrella (umbrella sedge; [10]): 0
- Plant response rating, Sedge, Umbrella (umbrella sedge; [11]): 85
- Sunflower plant response rating [4, 6]: 20
- Sunflower plant response rating [4, 7]: 40
- Plant response rating, Sunflower [4, 8]: 5
- Sunflower plant response rating [4, 9]: 45
- Plant response rating, Morningglory (morningglory; Postemergence, 125 g ai/ha): 10
- Morningglory plant response rating (morningglory; [12]): 50
- Morningglory plant response rating (morningglory; [13]): 60
- Plant response rating, Morningglory (morningglory; Preemergence, 500 g ai/ha): 80
- Lambsquarters plant response rating (lambsquarters; 125 g ai/ha): 60
- Lambsquarters plant response rating (lambsquarters; 250 g ai/ha): 100
- Bermudagrass plant response rating (bermudagrass; 62 g ai/ha, Preemergence, scale 0 to 100 (0 no effect, 100 complete control)): 100
- Bermudagrass plant response rating (bermudagrass; [7]): 100
- Plant response rating, Bermudagrass (bermudagrass; [8]): 100
- Bermudagrass plant response rating (bermudagrass; [9]): 100
- Plant response rating, Crabgrass, Large (crabgrass [5]; Postemergence, 125 g ai/ha): 40
- Crabgrass, Large plant response rating (crabgrass [5]; [12]): 80
- Crabgrass, Large plant response rating (crabgrass [5]; [13]): 80
- Plant response rating, Crabgrass, Large (crabgrass [5]; Preemergence, 500 g ai/ha): 90
